For eight molecules, inhibition and IC50 results are on record in US20230009626A1 (ICHNOS SCIENCES S.A., priority 2018, published 2023).

The experiment deals with HPK1 (MAP4K1) (Homo sapiens, UniProt Q92918). The experiment can be described thus: FRET Assay for HPK1 (MAP4K1): one step binding assay, displacement of labeled tracer. The note with it: for inhibition at 1 µM: 1 μM compound; for inhibition at 1 µM / inhibition at 10 µM: FRET ratio 665/620, percent of control; for inhibition at 10 µM: 10 μM compound; for IC50: dose response curve, nonlinear regression. The method in brief: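 TR-FRET tracer-displacement binding assay. GST-tagged HPK1 (10 nM) and Eu-anti-GST antibody (4 nM) were pre-incubated with compound on ice for 15 min in 50 mM HEPES pH 7.5, 10 mM MgCl2, 1 mM EGTA, 0.01% Brij-35 (3% DMSO final). Kinase Tracer 222 (20 nM) was then added for 1 h at room temperature. IC50 came from nonlinear regression of percent of control; percent inhibition was also given at 1.0 and 10.0 μM.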
Sequence of HPK1 (MAP4K1) (Q92918 whole entry): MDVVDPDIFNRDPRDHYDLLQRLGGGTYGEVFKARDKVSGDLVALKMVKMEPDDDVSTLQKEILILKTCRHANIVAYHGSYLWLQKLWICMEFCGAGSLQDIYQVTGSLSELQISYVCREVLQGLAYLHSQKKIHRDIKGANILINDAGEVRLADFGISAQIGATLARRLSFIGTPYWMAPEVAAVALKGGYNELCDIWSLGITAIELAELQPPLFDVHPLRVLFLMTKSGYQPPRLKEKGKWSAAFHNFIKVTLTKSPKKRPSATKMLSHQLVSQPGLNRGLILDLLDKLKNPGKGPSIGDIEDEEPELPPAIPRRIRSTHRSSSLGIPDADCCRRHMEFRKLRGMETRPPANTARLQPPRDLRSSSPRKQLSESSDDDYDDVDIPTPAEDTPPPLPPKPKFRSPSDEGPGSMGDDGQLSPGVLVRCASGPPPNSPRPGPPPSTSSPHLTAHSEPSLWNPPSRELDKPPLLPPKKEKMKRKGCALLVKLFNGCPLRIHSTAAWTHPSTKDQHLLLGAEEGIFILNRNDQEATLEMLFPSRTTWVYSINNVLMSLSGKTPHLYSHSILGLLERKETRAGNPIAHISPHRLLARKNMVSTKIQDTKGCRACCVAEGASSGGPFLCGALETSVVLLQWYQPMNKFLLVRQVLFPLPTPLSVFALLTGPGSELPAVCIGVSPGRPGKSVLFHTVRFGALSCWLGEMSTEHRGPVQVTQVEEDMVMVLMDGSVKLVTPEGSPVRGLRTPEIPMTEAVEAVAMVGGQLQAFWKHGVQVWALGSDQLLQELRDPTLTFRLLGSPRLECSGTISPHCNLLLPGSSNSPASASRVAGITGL

In the case of `C/C(Nc1ccn(C(C)(C)C#N)n1)=C1/C(=O)Nc2cnc(-c3ccccc3C)cc21` [Example 98, (Z)-2-Methyl-2-(3-((1-(2-oxo-5-(o-tolyl)-1H-pyrrolo[2,3-c]pyridin-3(2H)-ylidene)ethyl)amino)-1H-pyrazol-1-yl)propanenitrile], the inhibition at 1 µM amounted to 61%, the inhibition at 10 µM stood at 69% and the 50% inhibitory concentration (IC50) was 50 to 100 nM.
In the same order, the values of `C/C(Nc1cc(C)n([C@H](C)C#N)n1)=C1/C(=O)Nc2cnc(-c3cnccc3C)cc21` [Example 198, (R,Z)-2-(5-Methyl-3-((1-(5-(4-methylpyridin-3-yl)-2-oxo-1H-pyrrolo[2,3-c]pyridin-3(2H)-ylidene)ethyl)amino)-1H-pyrazol-1-yl)propanenitrile] are 73.8%, 71.1% and under 50 nM.
In the same order, the values of `C/C(Nc1cnn([C@H](C)C#N)c1)=C1/C(=O)Nc2cnc(-c3cnccc3C)cc21` [Example 160, (R,Z)-2-(4-((1-(5-(4-Methylpyridin-3-yl)-2-oxo-1H-pyrrolo[2,3-c]pyridin-3(2H)-ylidene)ethyl)amino)-1H-pyrazol-1-yl)propanenitrile] are 85%, 78.4% and under 50 nM.
In the same order, the values of `C/C(Nc1cc(C)n(C(C)(C)C#N)n1)=C1/C(=O)Nc2cnc(-c3cnccc3C)cc21` [Example 197, (Z)-2-Methyl-2-(5-methyl-3-((1-(5-(4-Methylpyridin-3-yl)-2-oxo-1H-pyrrolo[2,3-c]pyridin-3(2H)-ylidene)ethyl)amino)-1H-pyrazol-1-yl)propanenitrile] are 69.8%, 70.1% and under 50 nM.
As for `C/C(Nc1ccn(C[C@@H](C)O)n1)=C1/C(=O)Nc2cnc(-c3cnccc3C)cc21` [Example 136, (R,Z)-3-(1-((1-(2-Hydroxypropyl)-1H-pyrazol-3-yl)amino)ethylidene)-5-(4-methylpyridin-3-yl)-1H-pyrrolo[2,3-c]pyridin-2(3H)-one], the inhibition at 1 µM stood at 82.3%, the inhibition at 10 µM was found to be 78.9% and the concentration for half-maximal inhibition (IC50) was under 50 nM.
Consider `CCn1cc(N/C(C)=C2\C(=O)Nc3cnc(-c4cnccc4C)cc32)cn1` [Example 50, (Z)-3-(1-((1-Ethyl-1H-pyrazol-4-yl)amino)ethylidene)-5-(4-methylpyridin-3-yl)-1H-pyrrolo[2,3-c]pyridin-2(3H)-one], for which the inhibition at 1 µM came out at 82.8%, the inhibition at 10 µM is 87.9% and the IC50 was under 50 nM.
In the same order, the values of `C/C(Nc1ccn(C2COC2)n1)=C1/C(=O)Nc2cnc(-c3cnccc3C)cc21` [Example 76, (Z)-5-(4-Methylpyridin-3-yl)-3-(1-((1-(oxctan-3-yl)-1H-pyrazol-3-yl)amino)ethylidene)-1H-pyrrolo[2,3-c]pyridin-2(3H)-one] are 70.3%, 69% and under 50 nM.
Turning to `C/C(Nc1nn(C)c2ccccc12)=C1/C(=O)Nc2cnc(-c3cnccc3C)cc21` [Example 175, (Z)-3-(1-((1-Methyl-1H-indazol-3-yl)amino)ethylidene)-5-(4-methylpyridin-3-yl)-1H-pyrrolo[2,3-c]pyridin-2(3H)-one], the inhibition at 1 µM was 72.6% and the IC50 was under 50 nM.

Broadly, the inhibition is the percentage by which the read-out fell short of the control. The IC50 is the point on the concentration scale where inhibition reaches its midpoint. Low readings indicate greater potency in that assay, high ones weaker potency in that assay.
